In ChEMBL document CHEMBL1150395, “IRAK-4 inhibitors. Part II: a structure-based assessment of imidazo[1,2-a]pyridine binding” (Bioorg Med Chem Lett, 2008):

Legend:
[1] = target: T1, Interleukin-1 receptor-associated kinase 4 (Homo sapiens, UniProt Q9NWZ3); assay: Inhibition of IRAK4
T1 sequence (Q9NWZ3 whole entry): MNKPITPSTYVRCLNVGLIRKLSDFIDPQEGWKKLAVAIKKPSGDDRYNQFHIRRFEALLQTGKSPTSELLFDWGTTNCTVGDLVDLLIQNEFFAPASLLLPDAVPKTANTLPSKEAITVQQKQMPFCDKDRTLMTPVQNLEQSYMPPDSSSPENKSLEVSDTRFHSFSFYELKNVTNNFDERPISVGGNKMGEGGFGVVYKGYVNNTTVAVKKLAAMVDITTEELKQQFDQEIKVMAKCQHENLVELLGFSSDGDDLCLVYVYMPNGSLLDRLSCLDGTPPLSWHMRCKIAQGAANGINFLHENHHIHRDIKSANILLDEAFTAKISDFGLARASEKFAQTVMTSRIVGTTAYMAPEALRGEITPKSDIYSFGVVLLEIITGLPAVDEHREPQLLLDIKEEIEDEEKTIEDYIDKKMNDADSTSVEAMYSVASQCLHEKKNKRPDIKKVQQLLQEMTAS

[2] = target: Mitogen-activated protein kinase 10 (Homo sapiens, UniProt P53779); assay: Inhibition of JNK3
Sequence of Mitogen-activated protein kinase 10 (P53779 whole entry): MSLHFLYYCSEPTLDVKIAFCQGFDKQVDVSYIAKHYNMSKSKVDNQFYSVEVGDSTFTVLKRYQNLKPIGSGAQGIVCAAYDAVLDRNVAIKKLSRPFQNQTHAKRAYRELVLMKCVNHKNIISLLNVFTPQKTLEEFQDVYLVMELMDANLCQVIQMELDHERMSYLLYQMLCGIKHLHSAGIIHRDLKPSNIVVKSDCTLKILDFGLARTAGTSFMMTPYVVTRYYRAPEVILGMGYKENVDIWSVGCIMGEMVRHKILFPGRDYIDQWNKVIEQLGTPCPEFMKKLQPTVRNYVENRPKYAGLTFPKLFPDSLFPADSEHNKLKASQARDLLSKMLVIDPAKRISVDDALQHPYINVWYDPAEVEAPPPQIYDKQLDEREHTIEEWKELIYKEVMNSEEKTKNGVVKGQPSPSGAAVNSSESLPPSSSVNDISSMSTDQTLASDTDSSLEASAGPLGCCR

[3] = target: T2, Mitogen-activated protein kinase 8 (Homo sapiens, UniProt P45983); assay: Inhibition of JNK1 at 10 uM
T2 sequence (P45983 whole entry): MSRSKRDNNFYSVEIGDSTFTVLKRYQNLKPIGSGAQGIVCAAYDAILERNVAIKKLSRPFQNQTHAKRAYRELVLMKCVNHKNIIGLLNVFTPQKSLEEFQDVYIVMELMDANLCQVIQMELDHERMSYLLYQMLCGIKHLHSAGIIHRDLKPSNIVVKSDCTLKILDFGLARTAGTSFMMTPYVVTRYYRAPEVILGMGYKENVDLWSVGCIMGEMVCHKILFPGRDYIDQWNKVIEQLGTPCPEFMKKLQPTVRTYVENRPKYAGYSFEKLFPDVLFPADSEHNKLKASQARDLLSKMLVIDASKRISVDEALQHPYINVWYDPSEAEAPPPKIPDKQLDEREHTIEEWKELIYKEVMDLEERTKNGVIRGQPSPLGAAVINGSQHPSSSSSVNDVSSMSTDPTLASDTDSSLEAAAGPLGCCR

[4] = target: T3, Mitogen-activated protein kinase 9 (Homo sapiens, UniProt P45984); assay: Inhibition of JNK2 at 10 uM
Target sequence in this assay (P45984 whole entry, looked up): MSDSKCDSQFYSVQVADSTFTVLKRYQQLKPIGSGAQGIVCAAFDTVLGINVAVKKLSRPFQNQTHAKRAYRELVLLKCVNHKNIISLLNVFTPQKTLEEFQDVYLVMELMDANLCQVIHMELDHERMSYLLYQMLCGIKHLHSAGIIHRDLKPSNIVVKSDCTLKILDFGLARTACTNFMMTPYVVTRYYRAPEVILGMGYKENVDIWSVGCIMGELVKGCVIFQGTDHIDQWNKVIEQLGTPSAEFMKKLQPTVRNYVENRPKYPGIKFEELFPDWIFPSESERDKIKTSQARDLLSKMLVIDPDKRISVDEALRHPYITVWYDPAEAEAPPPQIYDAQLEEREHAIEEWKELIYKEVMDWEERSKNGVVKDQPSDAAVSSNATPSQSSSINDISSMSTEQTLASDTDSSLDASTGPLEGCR

[5] = target: T2, Mitogen-activated protein kinase 8; assay: Inhibition of JNK1
[6] = target: T4, Interleukin-1 receptor-associated kinase 4 (Homo sapiens) (UniProt Q9NWZ3); assay: Inhibition of IRAK4 at 10 uM
T4 sequence (whole entry): T1 sequence (Q9NWZ3 whole entry)

[7] = target: T3, Mitogen-activated protein kinase 9; assay: Inhibition of JNK2
Target sequence in this assay (P45984 whole entry): as the sequence (P45984 whole entry, looked up) above

IC50 [1] [µM] | IC50 [2] [µM] | inhibition [3] [%] | inhibition [4] [%] | IC50 [5] [µM] | inhibition [6] [%] | IC50 [7] [µM] | SMILES
0.4 | 0.003 |  |  |  |  |  | CN(c1nccc(-c2cnc3ccccn23)n1)C1CCCCC1
1.93 |  | 5 | 0 |  |  |  | c1cc(NC2CCNCC2)nc(-c2cncc3ccccc23)c1
0.216 |  |  | 59 | 3.8 |  |  | c1ccn2c(-c3ccnc(NC4CCNCC4)n3)cnc2c1
0.035 |  | 39 | 15 |  |  |  | c1cc(NC2CCNCC2)nc(-c2cnc3ccccn23)c1
 |  | 0 | 0 |  | 30 |  | c1cc(NC2CCNCC2)nc(-n2ccc3ccccc32)c1

The next lines start with the compound.

SMILES | IC50 [1] [µM] | IC50 [2] [µM] | inhibition [3] [%] | inhibition [4] [%] | IC50 [5] [µM] | inhibition [6] [%] | IC50 [7] [µM]
c1cc(NC2CCNCC2)nc(-n2cnc3ccccc32)c1 | 0.07 |  | 0 | 0 |  |  | 
CNC(=O)CN1CCC(Nc2nccc(-c3cnc4ccccn34)n2)CC1 |  | 0.27 |  |  |  |  | 
c1ccn2c(-c3ccnc(OC4CCNCC4)n3)cnc2c1 | 1.19 |  | 24 | 30 |  |  | 
c1cc(NC2CCNCC2)nc(-c2n[nH]c3ccccc23)c1 | 0.456 |  |  |  | 2.08 |  | 1.76
CN(c1nccc(-c2cnc3ccccn23)n1)C1CCNCC1 | 0.2 |  | 33 | 35 |  |  | 
c1ccn2c(-c3ccnc(NC4CCNCC4)c3)cnc2c1 |  |  | 0 | 0 |  | 31 | 
